pIC50: −log10 of the molar value. Structures can show the parent of a compound that is named as a salt.

For one assay, the target named is FAAH (Homo sapiens (Human), UniProt O00519). Kind of assay: Assay Method 1: FAAH assay, T84 cell homogenate, 3H-anandamide hydrolysis. The class given is biochemical. Conditions: 3H-AEA tracer 200 nM, 1 h at rt. The procedure: T84 frozen pellets (contents of 1-4×15 cm culture dishes) were homogenized in 300 mL of FAAH assay buffer (125 mM Tris, 1 mM EDTA, 0.2% glycerol, 0.02% Triton X-100, 0.4 mM Hepes, pH 9). The assay mixture was prepared from 50 μL of the cell homogenate, 10 μL of the test compound, and 40 μL of anandamide [1-3H-ethanolamine] (^3H-AEA; Perkin-Elmer, 10.3 Ci/mmol), which was added last, for a final tracer concentration of 200 nM. The reaction mixture was incubated at rt for 1 hour (h). During the incubation, 96-well Multiscreen filter plates (catalog number MAFCNOB50; Millipore, Bedford, Mass., USA) were loaded with 25 μL of activated charcoal (Multiscreen column loader, catalog number MACL09625, Millipore) and washed once with 100 μL of MeOH. Also during the incubation, 96-well DYNEX MicroLite plates (catalog number NL510410) were loaded with 100 μL of MicroScint40 (catalog number 6013641, Packard Bioscience, Meriden, Conn., USA). After the 1 h incubation, 60 μL of the reaction mixture were transferred to the charcoal plates, which were then assembled on top of the DYNEX plates using Centrifuge Alignment Frames (catalog number MACF09604, Millipore). The unbound, labeled ethanolamine was centrifuged through to the bottom plate (5 min at 2000 rpm), which was preloaded with the scintillant, as described above. The plates were sealed and left at rt for 1 h before counting on a Hewlett Packard TopCount.
FAAH, sequence (O00519 whole entry): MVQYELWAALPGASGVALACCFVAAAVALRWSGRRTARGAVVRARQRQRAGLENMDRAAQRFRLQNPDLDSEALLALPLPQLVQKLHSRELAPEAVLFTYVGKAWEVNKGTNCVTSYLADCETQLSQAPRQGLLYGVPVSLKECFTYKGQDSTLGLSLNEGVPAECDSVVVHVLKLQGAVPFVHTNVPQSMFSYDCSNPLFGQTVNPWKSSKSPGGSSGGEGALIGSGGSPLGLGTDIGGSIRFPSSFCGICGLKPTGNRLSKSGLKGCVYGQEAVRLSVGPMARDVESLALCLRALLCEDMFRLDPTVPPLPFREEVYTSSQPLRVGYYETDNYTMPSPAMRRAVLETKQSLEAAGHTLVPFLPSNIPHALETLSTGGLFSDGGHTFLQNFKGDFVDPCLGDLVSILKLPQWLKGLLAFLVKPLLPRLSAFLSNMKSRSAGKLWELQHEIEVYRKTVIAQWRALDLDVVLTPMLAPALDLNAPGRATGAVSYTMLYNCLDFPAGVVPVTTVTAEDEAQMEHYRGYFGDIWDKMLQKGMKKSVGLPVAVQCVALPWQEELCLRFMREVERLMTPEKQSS
The term pIC50 denotes the IC50 on a negative log10 scale, so that one unit is a factor of ten. `O=C(Nc1ccccc1)N1CCN(Cc2csc3ccccc23)CC1` [Example 31, 4-Benzo[b]thiophen-3-ylmethyl-piperazine-1-carboxylic acid phenylamide] had a pIC50 of 6.70. Same read-out and setting: the result for `O=C(Nc1ccccc1)N1CCN(Cc2cnc3ccc(Cl)cc3c2)CC1` [Example 69, 4-(6-Chloro-quinolin-3-ylmethyl)-piperazine-1-carboxylic acid phenylamide] reads 7.64; that for `O=C(Nc1ccc(F)cc1)N1CCN(Cc2ccc(Br)c(Br)c2)CC1` [Example 86, 4-(3,4-Dibromo-benzyl)-piperazine-1-carboxylic acid (4-fluoro-phenyl)-amide], 7.68; that for `O=C(Nc1cccnc1)N1CCN(Cc2ccc(Br)c(Br)c2)CC1` [Example 118, 4-(3,4-Dibromo-benzyl)-piperazine-1-carboxylic acid pyridin-3-ylamide], 7.57. As for `Cn1ccc2ccc(CN3CCN(C(=O)Nc4ccccc4)CC3)cc21` [Example 76, 4-(1-Methyl-1H-indol-6-ylmethyl)-piperazine-1-carboxylic acid phenylamide], the pIC50 was 6.46. Still for that read-out and setting: the result for `O=C(Nc1ccccc1)N1CCN(Cc2cccc(OCCCN3CCCCC3)c2)CC1` [Example 128, 4-[3-(3-Piperidin-1-yl-propoxy)-benzyl]-piperazine-1-carboxylic acid phenylamide] reads 5.70; that for `CCOc1cccc(CN2CCN(C(=O)Nc3ccccc3)CC2)c1` [Example 122, 4-(3-Ethoxy-benzyl)-piperazine-1-carboxylic acid phenylamide], 6.66. Consider `O=C(Nc1ccccn1)N1CCN(Cc2ccc(Br)c(Br)c2)CC1` [Example 117, 4-(3,4-Dibromo-benzyl)-piperazine-1-carboxylic acid pyridin-2-ylamide], for which the pIC50 is 6.44. Same read-out and setting: the result for `O=C(Nc1ccccc1F)N1CCN(Cc2ccc(Br)c(Br)c2)CC1` [Example 89, 4-(3,4-Dibromo-benzyl)-piperazine-1-carboxylic acid (2-fluoro-phenyl)-amide] reads 7.66. Same read-out and setting: the result for `Cc1cc(CN2CCN(C(=O)Nc3ccccc3)CC2)c(C)n1-c1cccc(C(F)(F)F)c1` [Example 83, 4-[2,5-Dimethyl-1-(3-trifluoromethyl-phenyl)-1H-pyrrol-3-ylmethyl]-piperazine-1-carboxylic acid phenylamide] reads 6.32; that for `O=C(Nc1ccccc1)N1CCN(Cc2ccc(F)c(Br)c2)CC1` [Example 29, 4-(3-Bromo-4-fluoro-benzyl)-piperazine-1-carboxylic acid phenylamide], 6.92.

As to `COc1cccc(Oc2cccc(CN3CCN(C(=O)Nc4ccccc4)CC3)c2)c1` [Example 135, 4-[3-(3-Methoxy-phenoxy)-benzyl]-piperazine-1-carboxylic acid phenylamide], the pIC50 was 7.08. Same read-out and setting: the result for `O=C(Nc1ccccc1)N1CCN(Cc2ccccc2OCc2ccccc2)CC1` [Example K, 4-(2-Benzyloxy-benzyl)-piperazine-1-carboxylic acid phenylamide, reference compound] reads less than 5.00; that for `Cc1ccccc1NC(=O)N1CCN(Cc2ccc(Br)c(Br)c2)CC1` [Example 96, 4-(3,4-Dibromo-benzyl)-piperazine-1-carboxylic acid o-tolylamide], less than 5.00; that for `Cn1ccc2cc(CN3CCN(C(=O)Nc4ccccc4)CC3)ccc21` [Example 53, 4-(1-Methyl-1H-indol-5-ylmethyl)-piperazine-1-carboxylic acid phenylamide], 6.64. On the same count and under the same terms, the result for `CCn1c2ccccc2c2cc(CN3CCN(C(=O)Nc4ccccc4)CC3)ccc21` [Example 80, 4-(9-Ethyl-9H-carbazol-3-ylmethyl)-piperazine-1-carboxylic acid phenylamide] reads 6.48; that for `O=C(Nc1ccccc1)N1CCN(Cc2cccc(-c3ccccc3)c2)CC1` [Example 70, 4-Biphenyl-3-ylmethyl-piperazine-1-carboxylic acid phenylamide], 6.39. Regarding `O=C(Nc1ccccc1)N1CCN(Cc2ccccn2)CC1` [Example 46, 4-Pyridin-2-ylmethyl-piperazine-1-carboxylic acid phenylamide], the pIC50 was less than 5.00. Same read-out and setting: the result for `O=C(Nc1ccccc1)N1CCN(Cc2cccc3ccccc23)CC1` [Example 40, 4-Naphthalen-1-ylmethyl-piperazine-1-carboxylic acid phenylamide] reads 5.96; that for `O=C(Nc1ccccc1)N1CCN(C2CCc3cc(Br)ccc3C2)CC1` (stereo not drawn) [Example L, 4-(6-Bromo-1,2,3,4-tetrahydro-naphthalen-2-yl)-piperazine-1-carboxylic acid phenylamide, reference compound], 6.43. Same read-out and setting: the result for `COc1cccc(CN2CCN(C(=O)Nc3ccccc3)CC2)c1` [Example 39, 4-(3-Methoxy-benzyl)-piperazine-1-carboxylic acid phenylamide] reads 5.96; that for `O=C(Nc1ccccc1)N1CCN(Cc2cccc(Oc3cccc(Cl)c3)c2)CC1` [Example 130, 4-[3-(3-Chloro-phenoxy)-benzyl]-piperazine-1-carboxylic acid phenylamide], 6.80.

On to `Cc1cccc(NC(=O)N2CCN(Cc3ccc(Br)c(Br)c3)CC2)c1` [Example 88, 4-(3,4-Dibromo-benzyl)-piperazine-1-carboxylic acid m-tolylamide], for which the pIC50 was 7.00. Compound `O=C(Nc1ccccc1Cl)N1CCN(Cc2cnc3ccccc3c2)CC1` [Example 99, 4-Quinolin-3-ylmethyl-piperazine-1-carboxylic acid (2-chloro-phenyl)-amide] showed a pIC50 of 5.80.

As to `Cc1ccc(CN2CCN(C(=O)Nc3ccccc3)CC2)cc1` [Example E, 4-(4-Methyl-benzyl)-piperazine-1-carboxylic acid phenylamide, reference compound], the pIC50 is 5.89. On to `O=C(Nc1cccc(F)c1)N1CCN(Cc2cnc3ccccc3c2)CC1` [Example 97, 4-Quinolin-3-ylmethyl-piperazine-1-carboxylic acid (3-fluoro-phenyl)-amide], for which the pIC50 was 6.92. On the same count and under the same terms, the result for `Cc1cccc(NC(=O)N2CCC(Cc3ccccc3)CC2)c1` [Example 114, 4-Benzyl-piperidine-1-carboxylic acid m-tolylamide] reads 5.64; that for `O=C(Nc1ccccc1)N1CCN(Cc2ccc(OCc3ccccc3)cc2)CC1` [Example 77, 4-(4-Benzyloxy-benzyl)-piperazine-1-carboxylic acid phenylamide], 7.49.

`O=C(Nc1ccccc1Cl)N1CCC(Cc2ccccc2)CC1` [Example 115, 4-Benzyl-piperidine-1-carboxylic acid (2-chloro-phenyl)-amide]: the pIC50 is 5.40.

Turning to `COc1ccc(CN2CCN(C(=O)Nc3ccccc3)CC2)cc1OC` [Example 44, 4-(3,4-Dimethoxy-benzyl)-piperazine-1-carboxylic acid phenylamide], the pIC50 was 5.40. The compound `O=C(Nc1ccccc1)N1CCN(Cc2cccc(Oc3cccc(C(F)(F)F)c3)c2)CC1` [Example 64, 4-[3-(3-Trifluoromethyl-phenoxy)-benzyl]-piperazine-1-carboxylic acid phenylamide] had a negative-log IC50 (pIC50) of 6.66. On the same count and under the same terms, the result for `C=Cc1cccc(CN2CCN(C(=O)Nc3ccccc3)CC2)c1` [Example 37, 4-(3-Vinyl-benzyl)-piperazine-1-carboxylic acid phenylamide] reads 6.23; that for `O=C(Nc1ccccc1)N1CCN(Cc2ccc(/C=C/c3ccccc3)cc2)CC1` [Example 81, 4-(4-Styryl-benzyl)-piperazine-1-carboxylic acid phenylamide], 5.22. `O=C(Nc1cccc(Cl)c1)N1CCN(Cc2ccc(Br)c(Br)c2)CC1` [Example 92, 4-(3,4-Dibromo-benzyl)-piperazine-1-carboxylic acid (3-chloro-phenyl)-amide]: the pIC50 was 6.62. For the compound `O=C(Nc1ccccc1)N1CCN(Cc2ccc3c(c2)OCCO3)CC1` [Example 35, 4-(2,3-Dihydro-benzo[1,4]dioxin-6-ylmethyl)-piperazine-1-carboxylic acid phenylamide], the pIC50 was 6.34. Same read-out and setting: the result for `O=C(Nc1ccccc1)N1CCN(Cc2ccc3cc(Cl)ccc3n2)CC1` [Example 54, 4-(6-Chloro-quinolin-2-ylmethyl)-piperazine-1-carboxylic acid phenylamide] reads 6.77; that for `Cc1ccc(NC(=O)N2CCN(Cc3cnc4ccccc4c3)CC2)cc1` [Example 104, 4-Quinolin-3-ylmethyl-piperazine-1-carboxylic acid p-tolylamide], 6.16. The compound `O=C(Nc1ccccc1)N1CCN(Cc2cccc(OS(=O)(=O)c3ccccc3)c2)CC1` [Example 138, Benzenesulfonic acid 3-(4-phenylcarbamoyl-piperazin-1-ylmethyl)-phenyl ester] had a pIC50 of 7.23.

The assay is the same for the next values; noted with them: 3H-AEA tracer 200 nM, 1 h at rt, hydrochloride.
For `COc1cc(Br)cc(CN2CCN(C(=O)Nc3ccccc3)CC2)c1O` [Example 161, 4-(5-Bromo-2-hydroxy-3-methoxy-benzyl)-piperazine-1-carboxylic acid phenylamide hydrochloride], the pIC50 was 6.68.

(Values after patent US9169224B2, “Piperazinyl and piperidinyl ureas as modulators of fatty acid amide hydrolase” (Janssen Pharmaceutica NV, priority 2004, dated 2015).)
